{
  "source": "patent US9308230B2",
  "about": "“Combination of proanthocyanidins and centella asiatica for the treatment of atherosclerosis” (HORPHAG RESEARCH IP, priority 2009, dated 2016)",
  "system": "hypoechoic-echolucent carotid and femoral atherosclerotic plaques",
  "test": "Grey Scale Median (GSM) ultrasound measurement of echolucent carotid and femoral atherosclerotic plaques, prospective 6-month trial",
  "format": "in vivo, human",
  "conditions": "once daily for 6 months, 100 mg/day of each component; responders/patients in group; ** = significant vs initial value and control",
  "description": "Variation in echogenicity of echolucent carotid and femoral atherosclerotic plaques with combined treatment (Pycnogenol 100 mg+TTFCA 100 mg, with or without Aspirin 100 mg). A prospective, pilot 6-month trial. (TTFCA=total triterpenic fraction of Centella asiatica) This study has evaluated whether a combination of Pycnogenol® and TTFCA, with or without Aspirin, was effective in reducing plaque progression and cardiovascular risk of events by decreasing platelet aggregation, local arterial inflammation and the intima-media scarring process due to inflammation at the level of carotid and femoral arteries bifurcations. This prospective placebo-controlled trial had the purpose of evaluating the effects of Pycnogenol® and TTFCA, with or without Aspirin, selectivity on hypoechoic-echolucent plaques. The sonographic examination of carotid plaques was made with high-resolution ultrasound. Capturing plaques images, digital image processing, and normalization were standardized. The interobserver, […], gain-level variability were also standardized using as reference blood (black) for the most echolucent parts of the plaque and the adventitia (white) as the most echogenic part. The technique for plaque characterization and GSM (Grey Scale Median) measurements had been previously described in details. […]",
  "data": [
    {"smiles": "CC(=O)Oc1ccccc1C(=O)O", "note": "[Aspirin, acetylsalicylic acid]", "values": [
      {"measurement": "At 6 months: number of patients with an increase of plaques Grey Scale Median of at least 5 points", "result": "2/18"}
    ]}
  ]
}
